# Assay results as given in patent US20240132431A1, “METHOD FOR ALKYLATING ACIDIC FUNCTIONAL GROUP” (Chugai Seiyaku Kabushiki Kaisha, priority 2021, published 2024).
# Target: T1, Bcl-2 protein (Recombinant Human Bcl-2 Protein) (Homo sapiens, UniProt P10415)
# T1 construct: purchased Novus NBP2-34889
# Experiment: Binding evaluation of mixture library compounds to Bcl-2 using AS-MS (affinity selection mass spectrometry)
# Conditions: for ASMS ratio (%) n = 1 / ASMS ratio (%) n = 2: ASMS Ratio(%)=(A−C)/B×100; for ASMS ratio (%) n = 1: replicate n = 1; for ASMS ratio (%) n = 2: replicate n = 2
# Protocol: For one well of MICROPLATE, 96-well, PP, V-BOTTOM (Greiner bio-one, 651201), DMSO solutions of 12 mixtures (prepared to approximately 0.58 mM based on calculations from the average molecular weight of each mixture), in each of which 100 compounds are mixed, were each dispensed, and dispensed into a total of 12 wells, where the 12 mixtures are mixAI-B4J-01, mixAI-B1M-01, mixAI-B1K-01, mixAI-B10-01, mixAI-B1A-01, mixAI-B3A-01, mixAI-B21-01, mixAI-B2L-01, mixAI-B2N-01, mixAI-B2A-01, mixAI-B2Q-01, and mixAI-B2R-01 listed in [Table AI-03-B4J-01], [Table AI-03-B1M-01], [Table AI-03-B1K-01], [Table AI-03-B10-01], [Table AI-03-B1A-01], [Table AI-03-B3A-01], [Table AI-03-B2I-01], [Table AI-03-B2L-01], [Table AI-03-B2N-01], [Table AI-03-B2A-01], [Table AI-03-B2Q-01], and [AI-03-B2R-01] shown in Example 6. Using the LABCYTE ECHO® 555 Acoustic Dispensing System (BECKMAN COULTER), 70 nL was collected from each of the 12 wells into one arbitrary well to prepare a sample solution with 1200 compounds in the mixed state (the presence of 1152 compounds had already been identified when prepared in Example 6-5-3). (In the present specification, the mixture collected in this one well is referred to as one library.) Furthermore, a Bcl-2 protein (Novus, NBP2-34889, Recombinant Human Bcl-2 Protein, Lot E60145051) (19.2 μL) that had been prepared in advance to be 20.9 μM using a Tris-HCl buffer (25 mM Tris-HCl pH 7.4, 150 mM NaCl, 0.025% Tween-20, 1 mM DTT) was added to the well in which 1200 compounds (the presence of 1152 compounds had already been identified when prepared in Example 6-5-3) were dispensed (final compound concentration […], final Bcl-2 concentration 20 μM), and the mixture was incubated in the dark at 23° C. for 1 hour. Next, using the 96-well MacroSpin column, P-2 Material (Harvard, 74-5655) that had been swollen, conditioning of the 96-well MacroSpin column was performed three times by centrifugation with 200 μL of an assay buffer (25 mM Tris-HCl pH 7.4, 150 mM NaCl, 0.025% Tween-20, 1 mM DTT), 2000 XG, 4° C., 2 min. Subsequently, 20 μL of the sample after incubation was added to the 96-well MacroSpin column, P-2 Material, that had been conditioned, and SEC treatment was performed by centrifugation at 2000×G for 2 minutes. To the liquid passed from the SEC, 32 μL of a 1:1 mixed solution of acetonitrile and methanol (LC/MS grade, Fujifilm Wako Pure Chemical Corporation) was added, the mixture was centrifuged at 1800×G, 4° C., 5 min, and the supernatant was used as analysis sample ASMS (A), while a sample that had been prepared by the same operations at 1200 compounds/well and to which only the Tris-HCl buffer had been added without the Bcl-2 protein was incubated under the same conditions, no 96-well MacroSpin column treatment was performed, the same organic solvent was added, and the supernatant solution obtained by centrifugation was used as STD (B). Next, a sample that had been prepared by the same operations at 1200 compounds/well and to which only the Tris-HCl buffer had been added without the Bcl-2 protein was incubated under the same conditions, the same 96-well MacroSpin column treatment was performed, the same organic solvent was added, and the supernatant solution obtained by centrifugation was used as BK (C), and measured by reversed phase LC/MS.
# Then, analysis of the 1200 compounds was carried out for samples A, B, and C with TraceFinder 5.1 (Thermo Fisher Scientific) and CHANCE Software (in-house), and the ASMS Ratio (%) was calculated according to the following calculation formula.
# Calculation formula: ASMS Ratio(%)=(A−C)/B×100
# [1] = AS-MS on the mixture of 1200 library compounds
# [2] = AS-MS, mixture of 1200 compounds, Bcl-2
# T1 sequence (P10415 whole entry): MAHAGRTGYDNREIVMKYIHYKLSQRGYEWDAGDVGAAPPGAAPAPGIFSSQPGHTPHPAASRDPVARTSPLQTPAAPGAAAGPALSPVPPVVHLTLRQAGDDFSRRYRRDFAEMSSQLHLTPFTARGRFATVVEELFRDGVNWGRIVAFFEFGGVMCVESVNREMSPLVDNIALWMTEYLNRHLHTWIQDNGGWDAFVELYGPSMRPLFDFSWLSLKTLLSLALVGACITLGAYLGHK
Molecule,ASMS ratio (%) n = 1 [2],ASMS ratio (%) n = 2 [2],further results
"CCOc1cccc(-c2ccc(C(=O)N3CCN(c4ccc(C(=O)N(CC)CC)cc4)CC3)cc2F)c1 [B4J027-01, 4-[4-[4-(3-Ethoxyphenyl)-3-fluorobenzoyl]piperazin-1-yl]-N,N-diethylbenzamide]",,,ASMS ratio (%) n = 1 [1]: −0.5%; ASMS ratio (%) n = 2 [1]: 0.2%
"CCOc1cncc(-c2cnn(-c3cc(C(=O)N4CCN(c5ccc(C(=O)NS(C)(=O)=O)nn5)CC4)cc(C(F)(F)F)c3)c2)c1 [B2I022-01, 6-[4-[3-[4-(5-Ethoxypyridin-3-yl)pyrazol-1-yl]-5-(trifluoromethyl)benzoyl]piperazin-1-yl]-N-methylsulfonylpyridazine-3-carboxamide]",,,"ASMS ratio (%) n = 1 (AS-MS, mixture library, Bcl-2): 0.0%; ASMS ratio (%) n = 2 (AS-MS, mixture library, Bcl-2): 0.0%"
4-[4-[3-[4-(5-Ethoxypyridin-3-yl)pyrazol-1-yl]-5-(trifluoromethyl)benzoyl]piperazin-1-yl]-N-propylbenzamide [B1M031-01],0.0%,−2.4%,
"CCOc1cccc(C#Cc2ccccc2C(=O)N2CCN(c3ccc(C(=O)NCC45CC6CC(CC(C6)C4)C5)nn3)CC2)c1 [B1A007-01, N-(1-Adamantylmethyl)-6-[4-[2-[2-(3-ethoxyphenyl)ethynyl]benzoyl]piperazin-1-yl]pyridazine-3-carboxamide]",0.0%,,
"CCOc1cncc(C#Cc2cncc(C(=O)N3CCN(c4ccc(C(=O)NS(=O)(=O)C(C)(C)C)cc4)CC3)c2)c1 [B2L032-01, N-tert-Butylsulfonyl-4-[4-[5-[2-(5-ethoxypyridin-3-yl)ethynyl]pyridine-3-carbonyl]piperazin-1-yl]benzamide]",,,ASMS ratio (%) (n = 1): 0.0%; ASMS ratio (%) (n = 2): −1.0%
"CCOc1cccc(C#Cc2ccccc2CN2CCN(c3ccc(C(=O)NCC45CC6CC(CC(C6)C4)C5)cc3)CC2)c1 [B1A069-01, N-(1-Adamantylmethyl)-4-[4-[[2-[2-(3-ethoxyphenyl)ethynyl]phenyl]methyl]piperazin-1-yl]benzamide]",8.3%,0.8%,
"CCOc1cncc(-c2cc(C(=O)N3CCN(c4ccc(C(=O)NCC56CC7CC(CC(C7)C5)C6)cc4)CC3)cc(C(C)(C)C)c2)c1 [B1A038-01, N-(1-Adamantylmethyl)-4-[4-[3-tert-butyl-5-(5-ethoxypyridin-3-yl)benzoyl]piperazin-1-yl]benzamide]",6.5%,−6.4%,
"CCOc1cncc(-c2ccc(C(=O)N3CCN(c4ccc(C(=O)NS(=O)(=O)CC56CC7CC(CC(C7)C5)C6)cc4)CC3)cc2F)c1 [B2A028-01, N-(1-Adamantylmethylsulfonyl)-4-[4-[4-(5-ethoxypyridin-3-yl)-3-fluorobenzoyl]piperazin-1-yl]benzamide]",,,"ASMS ratio (%) n = 1 (AS-MS, mixture library, Bcl-2): −1.0%; ASMS ratio (%) n = 2 (AS-MS, mixture library, Bcl-2): 1.2%"
6-[4-[[3-Ethoxy-5-(5-ethoxypyridin-3-yl)phenyl]methyl]piperazin-1-yl]-N-propylpyridazine-3-carboxamide [B1M012-01],−3.5%,−2.3%,
"CCOc1cncc(C#Cc2ccccc2C(=O)N2CCN(c3ccc(C(=O)NCC(F)(F)F)nn3)CC2)c1 [B1K008-01, 6-[4-[2-[2-(5-Ethoxypyridin-3-yl)ethynyl]benzoyl]piperazin-1-yl]-N-(2,2,2-trifluoroethyl)pyridazine-3-carboxamide]",0.0%,0.0%,
4-[4-[4-(3-Ethoxyphenyl)naphthalene-1-carbonyl]piperazin-1-yl]-N-propylbenzamide [B1M073-01],0.4%,−0.5%,
"CCOc1cncc(-c2ccc(C(C)N3CCN(c4ccc(C(=O)NS(=O)(=O)C(C)(C)C)cc4)CC3)c(F)c2)c1 (centres unmarked) [B2L100-01, N-tert-Butylsulfonyl-4-[4-[1-[4-(5-ethoxypyridin-3-yl)-2-fluorophenyl]ethyl]piperazin-1-yl]benzamide]",,,ASMS ratio (%) (n = 1): 0.0%; ASMS ratio (%) (n = 2): 0.0%
